pKd: −log10 of the molar value. Where two headings read alike, the source gives them in different places.
Target: T1, rNav1.2 sodium channels (Rattus norvegicus, UniProt P04775)
T1 construct: host or cells: HEK-293
Assay: QPatch automated patch clamp, inhibition of sodium currents evoked by 5 Hz trains at three extracellular pH values
Assay type: cell-based
Conditions: for class of pH-dependence pattern (cluster analysis): Ward's method on 18 variables of affinity, reversibility, onset; for τoffset / τonset: concentration (lidocaine 300 μM, memantine 30 μM)
Outline: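 Trains of 5 steps from −90 to −10 mV every 20 s. Apparent affinity, onset/offset time constants (single-exponential fits) and reversibility (w−i)/(c−i) were derived from single-concentration data.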

[1] = pH 6.0, single concentration (lidocaine 300 μM, memantine 30 μM), geometric mean of 5, read-out: apparent affinity
[2] = pH 7.3, single concentration (lidocaine 300 μM, memantine 30 μM), geometric mean of 5, read-out: apparent affinity
[3] = pH 8.6, single concentration (lidocaine 300 μM, memantine 30 μM), geometric mean of 5, read-out: apparent affinity
[4] = pH=6.0, cc 100 mM, read-out: Apparent Affinity
[5] = pH=7.3, cc 100 mM, read-out: Apparent Affinity
[6] = pH=8.6, cc 100 mM, read-out: Apparent Affinity

T1 sequence (P04775 whole entry): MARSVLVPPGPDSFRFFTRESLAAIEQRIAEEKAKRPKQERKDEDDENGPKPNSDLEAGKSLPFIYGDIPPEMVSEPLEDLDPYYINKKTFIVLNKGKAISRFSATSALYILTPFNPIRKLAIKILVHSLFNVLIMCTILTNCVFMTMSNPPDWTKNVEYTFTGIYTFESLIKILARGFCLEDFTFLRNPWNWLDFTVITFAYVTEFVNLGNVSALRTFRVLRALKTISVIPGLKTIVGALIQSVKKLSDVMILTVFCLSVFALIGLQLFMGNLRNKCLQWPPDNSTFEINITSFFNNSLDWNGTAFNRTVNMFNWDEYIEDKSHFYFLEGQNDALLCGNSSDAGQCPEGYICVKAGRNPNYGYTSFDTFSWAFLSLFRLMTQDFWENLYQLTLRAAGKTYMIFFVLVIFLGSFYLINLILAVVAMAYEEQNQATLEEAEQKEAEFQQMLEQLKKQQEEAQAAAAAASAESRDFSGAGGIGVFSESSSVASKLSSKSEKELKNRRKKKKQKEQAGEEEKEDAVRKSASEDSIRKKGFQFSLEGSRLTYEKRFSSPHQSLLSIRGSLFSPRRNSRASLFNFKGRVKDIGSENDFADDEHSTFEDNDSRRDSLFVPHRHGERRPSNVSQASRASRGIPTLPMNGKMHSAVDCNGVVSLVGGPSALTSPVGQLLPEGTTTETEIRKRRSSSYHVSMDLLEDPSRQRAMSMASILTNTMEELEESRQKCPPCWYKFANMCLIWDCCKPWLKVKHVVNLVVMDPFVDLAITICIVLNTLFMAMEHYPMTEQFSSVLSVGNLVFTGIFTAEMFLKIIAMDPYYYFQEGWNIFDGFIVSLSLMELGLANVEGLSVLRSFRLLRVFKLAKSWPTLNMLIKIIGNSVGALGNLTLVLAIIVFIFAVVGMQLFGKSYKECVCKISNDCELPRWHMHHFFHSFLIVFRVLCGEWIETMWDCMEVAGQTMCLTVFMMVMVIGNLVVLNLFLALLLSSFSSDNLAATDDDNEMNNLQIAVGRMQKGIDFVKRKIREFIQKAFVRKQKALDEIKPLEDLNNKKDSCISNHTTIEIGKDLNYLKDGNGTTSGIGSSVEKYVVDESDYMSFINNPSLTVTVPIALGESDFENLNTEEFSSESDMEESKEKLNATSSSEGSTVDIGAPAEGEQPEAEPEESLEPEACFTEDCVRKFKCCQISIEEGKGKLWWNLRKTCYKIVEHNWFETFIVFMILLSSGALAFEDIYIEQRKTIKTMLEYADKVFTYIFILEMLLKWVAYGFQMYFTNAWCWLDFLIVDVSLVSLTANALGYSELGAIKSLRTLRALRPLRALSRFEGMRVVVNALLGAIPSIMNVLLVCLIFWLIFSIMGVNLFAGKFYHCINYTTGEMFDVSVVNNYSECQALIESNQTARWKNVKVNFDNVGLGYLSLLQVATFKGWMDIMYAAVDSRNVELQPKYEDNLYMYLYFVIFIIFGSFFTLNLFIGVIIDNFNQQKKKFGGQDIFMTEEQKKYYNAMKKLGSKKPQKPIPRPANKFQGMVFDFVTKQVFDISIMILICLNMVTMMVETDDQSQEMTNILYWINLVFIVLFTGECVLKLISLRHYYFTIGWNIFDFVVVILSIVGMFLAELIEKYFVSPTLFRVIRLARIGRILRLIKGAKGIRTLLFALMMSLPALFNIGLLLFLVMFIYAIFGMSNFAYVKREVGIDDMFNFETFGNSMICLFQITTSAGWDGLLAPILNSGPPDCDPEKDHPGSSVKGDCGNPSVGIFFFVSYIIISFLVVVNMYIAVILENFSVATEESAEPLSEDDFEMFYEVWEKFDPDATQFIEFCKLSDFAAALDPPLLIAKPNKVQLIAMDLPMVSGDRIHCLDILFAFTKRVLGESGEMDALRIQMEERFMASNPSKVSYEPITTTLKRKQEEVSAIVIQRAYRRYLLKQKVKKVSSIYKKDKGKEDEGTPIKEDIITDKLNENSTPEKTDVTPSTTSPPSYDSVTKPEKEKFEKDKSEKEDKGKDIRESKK

pKd [1]	pKd [2]	pKd [3]	Compound	class of pH-dependence pattern (cluster analysis)	τoffset (pH 6.0)	τonset (pH 6.0)	τoffset (pH 7.3)	τonset (pH 7.3)	τoffset (pH 8.6)	τonset (pH 8.6)	Ratio Reversibility (pH 6.0/7.3, cc 100 mM)	Ratio Tau Offset (pH 6.0/7.3, cc 100 mM)	Ratio Tau Onset (pH 6.0/7.3, cc 100 mM)	log Ratio App Aff (pH 6.0/7.3, cc 100 mM)	Ratio Reversibility (pH 6.0/8.6, cc 100 mM)	Ratio Tau Offset (pH 6.0/8.6, cc 100 mM)	Ratio Tau Onset (pH 6.0/8.6, cc 100 mM)	log Ratio App Aff (pH 6.0/8.6, cc 100 mM)	Ratio Reversibility (pH 7.3/8.6, cc 100 mM)	Ratio Tau Offset (pH 7.3/8.6, cc 100 mM)	further results
–	–	–	COc1ccc(C(CN(C)C)C2(O)CCCCC2)cc1 (stereo not shown) [venlafaxine]	Class D	13.30 s	11.80 s	9.20 s	7.20 s	10.00 s	8.40 s	0.250	1.446	1.639	0.177	0.250	1.330	1.405	0.669	0.999	0.920	pKd (Apparent Affinity, pH=6.0, cc 100 mM): 3.09; pKd (Apparent Affinity, pH=7.3, cc 100 mM): 3.27; pKd (Apparent Affinity, pH=8.6, cc 100 mM): 3.76; pKd (apparent affinity, pH 6.0, single concentration (lidocaine 300 μM, memantine 30 μM), geometric mean of 5): 3.09; pKd (apparent affinity, pH 7.3, single concentration (lidocaine 300 μM, memantine 30 μM), geometric mean of 5): 3.27; pKd (apparent affinity, pH 8.6, single concentration (lidocaine 300 μM, memantine 30 μM), geometric mean of 5): 3.76; inhibition at 100 µM (pH 6): < 25%; inhibition at 100 µM (pH 7.3): < 25%; Ratio Tau Onset (pH 7.3/8.6, cc 100 mM): 0.857; log Ratio App Aff (pH 7.3/8.6, cc 100 mM): 0.492; effect of acidic pH on recovery (pH = 6.0 vs 7.3, in words): decreased recovery; Reversibility (pH=6.0, cc 100 mM): 0.18; Reversibility (pH=7.3, cc 100 mM): 0.73; Reversibility (pH=8.6, cc 100 mM): 0.73
3.69	3.65	3.61	COc1ccccc1OCC(O)CN1CCN(CC(=O)Nc2c(C)cccc2C)CC1 (stereo not shown) [ranolazine]	Class A	29.60 s	12.00 s	24.20 s	19.00 s	17.80 s	18.00 s	0.873	1.223	0.632	-0.038	1.042	1.663	0.667	-0.072	1.194	1.360	Ratio Tau Onset (pH 7.3/8.6, cc 100 mM): 1.056; log Ratio App Aff (pH 7.3/8.6, cc 100 mM): -0.034; Reversibility (pH=6.0, cc 100 mM): 0.76; pKd [4]: 3.69; Reversibility (pH=7.3, cc 100 mM): 0.88; pKd [5]: 3.65; Reversibility (pH=8.6, cc 100 mM): 0.73; pKd [6]: 3.61
3.86	4.05	4.36	Nc1c(Br)cc(Br)cc1CN[C@H]1CC[C@H](O)CC1 [ambroxol]	Class G	8.50 s	7.60 s	11.20 s	8.60 s	12.00 s	11.40 s	0.839	0.759	0.884	0.190	1.137	0.708	0.667	0.494	1.355	0.933	Ratio Tau Onset (pH 7.3/8.6, cc 100 mM): 0.754; log Ratio App Aff (pH 7.3/8.6, cc 100 mM): 0.303; Reversibility (pH=6.0, cc 100 mM): 0.65; pKd [4]: 3.86; Reversibility (pH=7.3, cc 100 mM): 0.78; pKd [5]: 4.05; Reversibility (pH=8.6, cc 100 mM): 0.58; pKd [6]: 4.36

Compound	pKd [1]	pKd [2]	pKd [3]	class of pH-dependence pattern (cluster analysis)	τoffset (pH 6.0)	τonset (pH 6.0)	τoffset (pH 7.3)	τonset (pH 7.3)	τoffset (pH 8.6)	τonset (pH 8.6)	Ratio Reversibility (pH 6.0/7.3, cc 100 mM)	Ratio Tau Offset (pH 6.0/7.3, cc 100 mM)	Ratio Tau Onset (pH 6.0/7.3, cc 100 mM)	log Ratio App Aff (pH 6.0/7.3, cc 100 mM)	Ratio Reversibility (pH 6.0/8.6, cc 100 mM)	Ratio Tau Offset (pH 6.0/8.6, cc 100 mM)	Ratio Tau Onset (pH 6.0/8.6, cc 100 mM)	log Ratio App Aff (pH 6.0/8.6, cc 100 mM)	Ratio Reversibility (pH 7.3/8.6, cc 100 mM)	Ratio Tau Offset (pH 7.3/8.6, cc 100 mM)	further results
Nc1nnc(-c2cccc(Cl)c2Cl)c(N)n1 [lamotrigine]	3.48	3.21	3.09	Class A	14.40 s	11.40 s	13.40 s	13.00 s	17.80 s	16.00 s	–	–	–	–	–	–	–	–	–	–	Ratio Reversibility (pH 6.0/7.3, cc 300 mM): 0.765; Ratio Tau Offset (pH 6.0/7.3, cc 300 mM): 1.075; Ratio Tau Onset (pH 6.0/7.3, cc 300 mM): 0.877; log Ratio App Aff (pH 6.0/7.3, cc 300 mM): -0.277; Ratio Reversibility (pH 6.0/8.6, cc 300 mM): 0.930; Ratio Tau Offset (pH 6.0/8.6, cc 300 mM): 0.809; Ratio Tau Onset (pH 6.0/8.6, cc 300 mM): 0.713; log Ratio App Aff (pH 6.0/8.6, cc 300 mM): -0.398; Ratio Reversibility (pH 7.3/8.6, cc 300 mM): 1.215; Ratio Tau Offset (pH 7.3/8.6, cc 300 mM): 0.753; Ratio Tau Onset (pH 7.3/8.6, cc 300 mM): 0.813; log Ratio App Aff (pH 7.3/8.6, cc 300 mM): -0.121; Reversibility (pH=6.0, cc 300 mM): 0.74; pKd (pH=6.0, cc 300 mM, read-out: Apparent Affinity): 3.48; Reversibility (pH=7.3, cc 300 mM): 0.96; pKd (pH=7.3, cc 300 mM, read-out: Apparent Affinity): 3.21; Reversibility (pH=8.6, cc 300 mM): 0.79; pKd (pH=8.6, cc 300 mM, read-out: Apparent Affinity): 3.09
